Results reported in US9833497B2, “Human originated EGF domain proteins and use of the same” (CHENGDU SOURCEBIO LIMITED-LIABILITY COMPANY, priority 2013, dated 2017).

Columns and labels:
Format in all cases: cell-based
E. coli DH5α = assay: Antibacterial activity: MIC and growth curve against E. coli DH5α in 96-well plate; conditions: minimal inhibitory concentration against E. coli DH5α; 96-well plate, 5×10^5 CFU/mL, 37° C., judged after 8 h
Procedure, shortened: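 Log-phase DH5α (OD600 about 0.5, 37° C, 185 rpm in LB) was pelleted, resuspended in fresh LB and seeded at 5×10^5 CFU/mL with recombinant protein at 50, 25 and 12.5 μg/mL (two-fold series), in triplicate. Plates were shaken at 175 rpm, 37° C, and OD600 was read every 30 min. MIC was the lowest concentration with no growth.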

E. coli BL21 = assay: MIC against Gram-negative bacteria: E. coli BL21; conditions: 5×10^5 CFU/mL; for MIC E. coli BL21: two-fold serial dilution
Procedure, shortened: (§1)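 Read-out is absence of bacterial growth, with MIC set at the lowest recombinant protein concentration achieving it. Bacteria, pre-grown in LB to McFarland 0.5 and resuspended, were exposed at 5×10^5 CFU/mL to two-fold diluted human EGF domain proteins in triplicate at 37° C, 175 rpm.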

Enterobacter cloacae = assay: MIC against Gram-negative bacteria: Enterobacter cloacae; conditions: 5×10^5 CFU/mL; for MIC E. cloacae: two-fold serial dilution
Procedure, shortened: as §1

Proteus mirabilis = assay: MIC against Gram-negative bacteria: Proteus mirabilis; conditions: 5×10^5 CFU/mL; for MIC P. mirabilis: two-fold serial dilution
Procedure, shortened: as §1

Moraxella catarrhalis = assay: MIC against Gram-negative bacteria: Moraxella catarrhalis; conditions: 5×10^5 CFU/mL; for MIC M. catarrhalis: two-fold serial dilution
Procedure, shortened: as §1

Proteus vulgaris = assay: MIC against Gram-negative bacteria: Proteus vulgaris; conditions: 5×10^5 CFU/mL; for MIC P. vulgaris: two-fold serial dilution
Procedure, shortened: as §1

Klebsiella pneumonia = assay: MIC against Gram-negative bacteria: Klebsiella pneumonia; conditions: 5×10^5 CFU/mL; for MIC K. pneumonia: two-fold serial dilution
Procedure, shortened: as §1

Pseudomonas aeruginosa = assay: MIC against Gram-negative bacteria: Pseudomonas aeruginosa; conditions: 5×10^5 CFU/mL; for MIC P. aeruginosa: two-fold serial dilution
Procedure, shortened: as §1

Citrobacter diversus = assay: MIC against Gram-negative bacteria: Citrobacter diversus; conditions: 5×10^5 CFU/mL; for MIC C. diversus: two-fold serial dilution
Procedure, shortened: as §1

Aeromonas hydrophila = assay: MIC against Gram-negative bacteria: Aeromonas hydrophila; conditions: 5×10^5 CFU/mL; for MIC A. hydrophila: two-fold serial dilution
Procedure, shortened: as §1

Serratia marcescens = assay: MIC against Gram-negative bacteria: Serratia marcescens; conditions: 5×10^5 CFU/mL; for MIC S. marcescens: two-fold serial dilution
Procedure, shortened: as §1

[1] = E. coli BL21, 96-well plate, 37° C., 10 h
[2] = Enterobacter cloacae, 96-well plate, 37° C., 10 h
[3] = Proteus mirabilis, 96-well plate, 37° C., 10 h
[4] = Moraxella catarrhalis, 96-well plate, 37° C., 10 h
[5] = Proteus vulgaris, 96-well plate, 37° C., 10 h
[6] = Klebsiella pneumonia, 96-well plate, 37° C., 10 h
[7] = Pseudomonas aeruginosa, 96-well plate, 37° C., 10 h
[8] = Citrobacter diversus, 96-well plate, 37° C., 10 h
[9] = Aeromonas hydrophila, 96-well plate, 37° C., 10 h
[10] = Serratia marcescens, 96-well plate, 37° C., 10 h
[11] = E. coli BL21, 10 h cultivation at 37° C.
[12] = E. cloacae, 10 h cultivation at 37° C.
[13] = P. mirabilis, 10 h cultivation at 37° C.
[14] = M. catarrhalis, 10 h cultivation at 37° C.
[15] = P. vulgaris, 10 h cultivation at 37° C.
[16] = K. pneumonia, 10 h cultivation at 37° C.
[17] = P. aeruginosa, 10 h cultivation at 37° C.
[18] = C. diversus, 10 h cultivation at 37° C.
[19] = A. hydrophila, 10 h cultivation at 37° C.
[20] = S. marcescens, 10 h cultivation at 37° C.

Substance	MIC (E. coli DH5α)	MIC (μg/mL) E. coli BL21 (E. coli BL21; [11])	MIC (μg/mL) E. cloacae (Enterobacter cloacae; [12])	MIC (μg/mL) P. mirabilis (Proteus mirabilis; [13])	MIC (μg/mL) M. catarrhalis (Moraxella catarrhalis; [14])	MIC (μg/mL) P. vulgaris (Proteus vulgaris; [15])	MIC (μg/mL) K. pneumonia (Klebsiella pneumonia; [16])	MIC (μg/mL) P. aeruginosa (Pseudomonas aeruginosa; [17])	MIC (μg/mL) C. diversus (Citrobacter diversus; [18])	MIC (μg/mL) A. hydrophila (Aeromonas hydrophila; [19])	MIC (μg/mL) S. marcescens (Serratia marcescens; [20])	MIC E. coli BL21 (E. coli BL21; 10 h cultivation at 37° C.)	MIC E. cloacae (Enterobacter cloacae; 10 h cultivation at 37° C.)	MIC P. mirabilis (Proteus mirabilis; 10 h cultivation at 37° C.)	MIC M. catarrhalis (Moraxella catarrhalis; 10 h cultivation at 37° C.)	MIC P. vulgaris (Proteus vulgaris; 10 h cultivation at 37° C.)	MIC K. pneumonia (Klebsiella pneumonia; 10 h cultivation at 37° C.)	MIC P. aeruginosa (Pseudomonas aeruginosa; 10 h cultivation at 37° C.)	MIC C. diversus (Citrobacter diversus; 10 h cultivation at 37° C.)	MIC A. hydrophila (Aeromonas hydrophila; 10 h cultivation at 37° C.)	further results
PRT21 (NCATPCTEGCECNQGFVLSTSQCV; listed as Homo sapiens)	25 µg/mL																				MIC (μg/mL) E. coli BL21 (E. coli BL21; [1]): 50 µg/mL; MIC (μg/mL) E. cloacae (Enterobacter cloacae; [2]): 50 µg/mL; MIC (μg/mL) P. mirabilis (Proteus mirabilis; [3]): 50 µg/mL; MIC (μg/mL) M. catarrhalis (Moraxella catarrhalis; [4]): 12.5 µg/mL; MIC (μg/mL) P. vulgaris (Proteus vulgaris; [5]): 25 µg/mL; MIC (μg/mL) K. pneumonia (Klebsiella pneumonia; [6]): 25 µg/mL; MIC (μg/mL) P. aeruginosa (Pseudomonas aeruginosa; [7]): 12.5 µg/mL; MIC (μg/mL) C. diversus (Citrobacter diversus; [8]): 25 µg/mL; MIC (μg/mL) A. hydrophila (Aeromonas hydrophila; [9]): 12.5 µg/mL; MIC (μg/mL) S. marcescens (Serratia marcescens; [10]): 50 µg/mL
PRT838 (GLQECSAYCGSHGTCASPLGPCRCEPGFLGRACD; listed as Homo sapiens)	50 µg/mL	12.5 µg/mL	25 µg/mL	25 µg/mL	12.5 µg/mL	12.5 µg/mL	12.5 µg/mL	50 µg/mL	25 µg/mL	50 µg/mL	25 µg/mL										
PRT1086 (HFKPCRDKDLAYCLNDGECFVIETLTGSHKHCRCKEGYQGVRCD; listed as Homo sapiens)	12.5 µg/mL											25 µg/mL	12.5 µg/mL	12.5 µg/mL	25 µg/mL	50 µg/mL	25 µg/mL	50 µg/mL	50 µg/mL	25 µg/mL	MIC S. marcescens (Serratia marcescens; 10 h cultivation at 37° C.): 12.5 µg/mL
PRT165 (DVRACSSAPCANNGTCVSLDDGLYECSCAPGYSGKDCQ; listed as Homo sapiens)	12.5 µg/mL	12.5 µg/mL	25 µg/mL	12.5 µg/mL	25 µg/mL	25 µg/mL	12.5 µg/mL	25 µg/mL	25 µg/mL	25 µg/mL	12.5 µg/mL										
PRT244 (TCAMINCQYSCEDTEEGPQCLCPSSGLRLAPNGRDCL; listed as Homo sapiens)	50 µg/mL	12.5 µg/mL	12.5 µg/mL	12.5 µg/mL	25 µg/mL	25 µg/mL	12.5 µg/mL	12.5 µg/mL	12.5 µg/mL	25 µg/mL	12.5 µg/mL										
PRT1455 (DWDECVDSAEHDCSPAAWCINLEGSYTCQCRTTRDATPSRAGRACE; listed as Homo sapiens)	25 µg/mL																				MIC against E. coli BL21 (E. coli BL21; [11]): 12.5 µg/mL; MIC against E. cloacae (Enterobacter cloacae; Enterobacter cloacae, 10 h cultivation at 37° C.): 12.5 µg/mL; MIC against P. mirabilis (Proteus mirabilis; Proteus mirabilis, 10 h cultivation at 37° C.): 12.5 µg/mL; MIC against M. catarrhalis (Moraxella catarrhalis; Moraxella catarrhalis, 10 h cultivation at 37° C.): 12.5 µg/mL; MIC against P. vulgaris (Proteus vulgaris; Proteus vulgaris, 10 h cultivation at 37° C.): 12.5 µg/mL; MIC against K. pneumonia (Klebsiella pneumonia; Klebsiella pneumonia, 10 h cultivation at 37° C.): 25 µg/mL; MIC against P. aeruginosa (Pseudomonas aeruginosa; Pseudomonas aeruginosa, 10 h cultivation at 37° C.): 25 µg/mL; MIC against C. diversus (Citrobacter diversus; Citrobacter diversus, 10 h cultivation at 37° C.): 12.5 µg/mL; MIC against A. hydrophila (Aeromonas hydrophila; Aeromonas hydrophila, 10 h cultivation at 37° C.): 25 µg/mL; MIC against S. marcescens (Serratia marcescens; Serratia marcescens, 10 h cultivation at 37° C.): 25 µg/mL
PRT470 (KCPQPCRNGGKCIGKSKCKCSKGYQGDLCS; listed as Homo sapiens)	50 µg/mL																				MIC against E. coli BL21 (E. coli BL21; 96-well plate, 37° C., 10 h): 12.5 µg/mL; MIC against E. cloacae (Enterobacter cloacae; 96-well plate, 37° C., 10 h): 50 µg/mL; MIC against P. mirabilis (Proteus mirabilis; 96-well plate, 37° C., 10 h): 50 µg/mL; MIC against M. catarrhalis (Moraxella catarrhalis; 96-well plate, 37° C., 10 h): 25 µg/mL; MIC against P. vulgaris (Proteus vulgaris; 96-well plate, 37° C., 10 h): 12.5 µg/mL; MIC against K. pneumonia (Klebsiella pneumonia; 96-well plate, 37° C., 10 h): 12.5 µg/mL; MIC against P. aeruginosa (Pseudomonas aeruginosa; 96-well plate, 37° C., 10 h): 50 µg/mL; MIC against C. diversus (Citrobacter diversus; 96-well plate, 37° C., 10 h): 12.5 µg/mL; MIC against A. hydrophila (Aeromonas hydrophila; 96-well plate, 37° C., 10 h): 25 µg/mL; MIC against S. marcescens (Serratia marcescens; 96-well plate, 37° C., 10 h): 50 µg/mL
PRT1192 (DIDECASNPCAAGGTCVDQVDGFECICPEQWVGATCQ; listed as Homo sapiens)	25 µg/mL											12.5 µg/mL	25 µg/mL	12.5 µg/mL	25 µg/mL	50 µg/mL	50 µg/mL	25 µg/mL	50 µg/mL	12.5 µg/mL	MIC S. marcescens (Serratia marcescens; 10 h cultivation at 37° C.): 25 µg/mL
PRT1327 (EINPCLENHGGCDKNAECTQTGPNQAACNCLPAYTGDGKVCT; listed as Homo sapiens)	25 µg/mL																				MIC against E. coli BL21 (E. coli BL21; [1]): 12.5 µg/mL; MIC against E. cloacae (Enterobacter cloacae; [2]): 50 µg/mL; MIC against P. mirabilis (Proteus mirabilis; [3]): 12.5 µg/mL; MIC against M. catarrhalis (Moraxella catarrhalis; [4]): 12.5 µg/mL; MIC against P. vulgaris (Proteus vulgaris; [5]): 12.5 µg/mL; MIC against K. pneumonia (Klebsiella pneumonia; [6]): 12.5 µg/mL; MIC against P. aeruginosa (Pseudomonas aeruginosa; [7]): 50 µg/mL; MIC against C. diversus (Citrobacter diversus; [8]): 12.5 µg/mL; MIC against A. hydrophila (Aeromonas hydrophila; [9]): 12.5 µg/mL; MIC against S. marcescens (Serratia marcescens; [10]): 25 µg/mL
PRT459 (RTAKCEPACRHGGVCVRPNKCLCKKGYLGPQCE; listed as Homo sapiens)	25 µg/mL																				MIC against E. coli BL21 (E. coli BL21; 96-well plate, 37° C., 10 h): 12.5 µg/mL; MIC against E. cloacae (Enterobacter cloacae; 96-well plate, 37° C., 10 h): 25 µg/mL; MIC against P. mirabilis (Proteus mirabilis; 96-well plate, 37° C., 10 h): 25 µg/mL; MIC against M. catarrhalis (Moraxella catarrhalis; 96-well plate, 37° C., 10 h): 50 µg/mL; MIC against P. vulgaris (Proteus vulgaris; 96-well plate, 37° C., 10 h): 12.5 µg/mL; MIC against K. pneumonia (Klebsiella pneumonia; 96-well plate, 37° C., 10 h): 50 µg/mL; MIC against P. aeruginosa (Pseudomonas aeruginosa; 96-well plate, 37° C., 10 h): 25 µg/mL; MIC against C. diversus (Citrobacter diversus; 96-well plate, 37° C., 10 h): 25 µg/mL; MIC against A. hydrophila (Aeromonas hydrophila; 96-well plate, 37° C., 10 h): 12.5 µg/mL; MIC against S. marcescens (Serratia marcescens; 96-well plate, 37° C., 10 h): 25 µg/mL
PRT1047 (SNTCTCKNGGTCLPENGNCVCAPGFRGPSCQ; listed as Homo sapiens)	50 µg/mL											50 µg/mL	25 µg/mL	12.5 µg/mL	12.5 µg/mL	12.5 µg/mL	50 µg/mL	25 µg/mL	50 µg/mL	12.5 µg/mL	MIC S. marcescens (Serratia marcescens; 10 h cultivation at 37° C.): 12.5 µg/mL
PRT826 (FGVGCEHTCSCRNGGLCHASNGSCSCGLGWTGRHCE; listed as Homo sapiens)	12.5 µg/mL	50 µg/mL	50 µg/mL	12.5 µg/mL	25 µg/mL	12.5 µg/mL	100 µg/mL	25 µg/mL	12.5 µg/mL	12.5 µg/mL	12.5 µg/mL										
PRT1048 (YGKRCVPCKCANHSFCHPSNGTCYCLAGWTGPDCS; listed as Homo sapiens)	12.5 µg/mL											25 µg/mL	12.5 µg/mL	12.5 µg/mL	25 µg/mL	50 µg/mL	25 µg/mL	50 µg/mL	50 µg/mL	25 µg/mL	MIC S. marcescens (Serratia marcescens; 10 h cultivation at 37° C.): 12.5 µg/mL
